In PubChem BioAssay AID504702 (Southern Research Specialized Biocontainment Screening …, 2011):
Active and inactive are the calls of the source. No rule for the calls is given here.

Tests used:
[1] = system: M. tuberculosis H37Rv with meropenem, growth inhibition; experiment: M. tuberculosis growth inhibition with meropenem, dose response, H37Rv, set 2 (AID 504702); settings: for IC90: measured here: IC90 growth with meropenem;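 as to all read-outs here: growth read by Alamar Blue after 7 days plus overnight incubation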
[2] = as above; settings: M. tuberculosis H37Rv with meropenem, growth inhibition

Structure (SMILES) | IC90 [1] | growth inhibition ([2]; at 18.8 µM (top of the series)) | IC50 [1] | growth inhibition ([2]; at 25 µM (top of the series))
COc1cccc(-c2ccc(-c3noc(-c4ccccc4F)n3)c(OC)n2)c1 | > 25 µM | 5.58% (inactive) | – | –
S=C(Nc1ccccc1)Nc1ccc(Cl)cn1 | > 25 µM | 1.73% (inactive) | 6.64 µM | –
O=C(Cc1ccccc1Cl)Nc1nc2ccccc2[nH]1 | > 25 µM | -1.22% (inactive) | 18.9 µM | –
Cc1ccccc1OCC(=O)Nc1ccccc1-c1ccccc1 | > 25 µM | 23.6% (inactive) | 14.6 µM | –
COc1ccc2nc(NC(=O)COc3ccc(C)cc3)sc2c1 | – | – | – | -3.26% (inactive)
COc1ccc2nc(NC(=O)COc3ccccc3C(C)C)sc2c1 | – | – | – | -2.44% (inactive)
Cc1ccc(OCC(=O)Nc2nc3ccc(F)cc3s2)cc1 | – | – | – | -0.17% (inactive)
N/C(=N\c1nc2ccccc2o1)NC(=O)c1ccccc1F | – | – | – | -5.8% (inactive)
N/C(=N\c1nc2ccccc2o1)NC(=O)C1CC1 | – | – | – | 9.34% (inactive)
COc1ccc2[nH]c(C)cc2c1 | – | – | – | 0.56% (inactive)
Cc1cc(C)c(OCC(=O)Nc2nc3ccccc3[nH]2)c(C)c1 | > 25 µM | 5.17% (inactive) | 5.55 µM | –
COc1ccccc1C(=O)N/C(N)=N/c1nc2ccccc2o1 | – | – | – | 0.18% (inactive)
N/C(=N\c1nc2ccccc2o1)NC(=O)c1ccccc1 | – | – | – | 2.3% (inactive)
c1ccc(-c2cc(N3CCOCC3)nc3ccccc23)cc1 | > 18.8 µM | – | 10 µM | 6.06% (inactive)
Cc1ccc(C(C)C)c(OCC(=O)Nc2nc3ccccc3s2)c1 | – | – | – | -4.96% (inactive)
O=C(COc1ccccc1Cl)Nc1nc2ccccc2s1 | – | – | – | -4.37% (inactive)
CCCN1CC(O)=C(c2nc3ccccc3s2)C1=N | – | – | – | 1.43% (inactive)
Cc1cc(C)c(OCC(=O)Nc2nc3ccccc3s2)c(Cl)c1 | – | – | – | -6.55% (inactive)
COC(=O)c1ccc2nc(NC(=O)COc3ccccc3)sc2c1 | – | – | – | 15.1% (inactive)
Cc1ccccc1OCC(=O)Nc1ncn[nH]1 | – | – | – | 0.97% (inactive)
Cc1cc2ccccc2n1-c1ccccc1 | – | – | – | -0.06% (inactive)
Cc1cc2cc(F)ccc2n1-c1ccccc1 | – | – | – | 5.53% (inactive)
COC(=O)c1c(C)[nH]c2ccc(Cl)cc12 | – | – | – | -8.83% (inactive)
COC(=O)c1c(C)[nH]c2ccc(F)cc12 | – | – | – | -3.53% (inactive)
Cc1ccc(OCC(=O)Nc2cccc3ncccc23)c(C)c1 | – | – | – | 1.76% (inactive)
Cc1ccc2sc(NC(=O)COc3ccccc3)nc2c1C | – | – | – | 14.4% (inactive)
CC(=O)c1c(C)n(-c2ccc(C)cc2)c2ccc(O)cc12 | – | – | – | -1.38% (inactive)
CCOc1ccc2[nH]ccc2c1 | – | – | – | 2.77% (inactive)
CC(=O)c1c(C)n(-c2ccccc2C)c2ccc(O)cc12 | – | – | – | -1.1% (inactive)
CCOc1ccc2nc(NC(=O)c3cnccn3)sc2c1 | – | -0.94% (inactive) | – | 20.9% (inactive)
